Measured values: publication PMC9504208, “Comprehensive Study of Antiretroviral Drug Permeability at the Cervicovaginal Mucosa via an In Vitro Model” (Pharmaceutics, 2022)
Where two headings read alike, the source gives them in different places.

Key:
[1] = test system: drug transporter mRNA expression in HEC-1A cells; assay: Drug transporter mRNA expression (RT-qPCR) in stimulated HEC-1A cells; type: cell-based, human; details: 72 h stimulation
Experimental: (§1) Control was 0.1% DMSO with no drug. Cytokines were reconstituted in sterile and distilled water and added individually to cell cultures at the following concentrations: TNF-α (200 pg/mL), IL-1β (8 ng/mL), IL-6 (5 ng/mL) and IL-8 (100 ng/mL) were. […] Cells were stimulated for either drugs, cytokines or hormones for 72 h, before harvesting by centrifugation at 300× g for 10 min at 4 °C. For Lactobacillus crispatus a final MoI of 10 was used (10:1, bacterial cells:mammalian cell ratio) for co-culture in both HEC-1A and VK2/E6E7 cell lines. For Candida albicans, a final MoI of 1 for HEC-1A cells and 0.25 for VK2/E6E7 cells was used. Cells were incubated with fungal cells at 37 °C/5% CO2 for 24 h. All cell line stimulation experiments were conducted as a minimum of three biological repeats.
(§2) RNA extraction was performed using the RNeasy® Mini Kit (Qiagen, Manchester, UK). Cells were lysed by suspension in 600 μL of RLT Buffer with 1% β-mercaptoethanol (Sigma-Aldrich) and mechanical lysis into a QIAshredder (Qiagen). After the addition of 70% ethanol, the solution was loaded onto RNeasy columns for RNA purification as per the manufacturer’s instructions. DNase treatment was 15 min at room temperature. RNA was eluted from the columns with 30 μL of RNase-free ddH2O. Tapestation analysis was performed using an Agilent 2200 Tapestation system to determine the integrity of the RNA.
(§3) Synthesis of cDNA was performed using a Superscript® VILO™ kit (Life Technologies, Paisley, UK). Reverse transcription was performed at 25 °C for 10 min, 42 °C for 60 min and 85 °C for 5 min. The cDNA was then stored at −20 °C until RT-PCR assays.
(§4) SYBRgreen® PrecisionTM 2× qPCR Mastermix with ROX quencher (Primer Design, Southampton, UK) was used for all RT-qPCR assays. Individual primers were designed to target the HPRT1 and RPLP0 housekeeper genes (selected from an initial panel based on SD scores as a measure of the consistency of expression amongst all samples) in addition to seventeen ARV-associated drug transporters (9 ABC transporters and 8 SLC transporters) replicating the system contained in the TaqMan® 96-well Drug Transporter Array system (Life Technologies, Paisley, UK). Real-time quantitative PCR was performed using the 7900HT Fast Real-Time PCR system and data was analysed using the SDS 2.4 software (Applied Biosystems, Waltham, MA, USA). Cycling conditions were: 95 °C for 5 min, followed by 40 cycles of denaturation at 95 °C for 10 s, annealing at 60 °C for 10 s and extension at 72 °C for 10 s. Relative transcript levels in drug-stimulated cells were determined using the comparative Ct method (ΔΔCt method). Fold-change values of ±2–3 were considered minor, ±3–5 as moderate and >±5 as high.

VK2/E6E7 cells = assay: Intracellular accumulation of digoxin in cytokine-stimulated VK2/E6E7 cells; type: cell-based, human; details: 5 µM digoxin, 1 h; after cytokine stimulation
Experimental: A 500 μL sample from each well was stored and the remainder of the buffer was aspirated from the plates. The wells were then washed twice with ice-cold PBS to stop any further uptake of the drug. To each well, 500 μL of ddH2O was added and cells were removed using a cell scraper. The cell suspension was then transferred to individual tubes for mechanical cell lysis using a 21-gauge needle followed by a freeze-thaw cycle at -80 °C. Protein content for normalisation calculations was measured via a bicinchoninic acid assay. The solution was then centrifuged at 14,000× g for 15 min and the supernatants were stored at -80 °C until analysis by LC-MS/MS. Samples were centrifuged at 14,800 rpm for 5 min to remove cell debris. […] Analysis was performed on a Thermo Surveyor TSQ Quantum system using electrospray ionisation in positive ion mode. Samples (5 μL) were applied to a C18 column (Gemini 3μ, 150 × 3.0 mm, Phenomenex, Macclesfield, UK) maintained at 40 °C. […] The flow rate for both methods was 350 μL/min. […] Cytokines were reconstituted in sterile and distilled water and added individually to cell cultures at the following concentrations: TNF-α (200 pg/mL), IL-1β (8 ng/mL), IL-6 (5 ng/mL) and IL-8 (100 ng/mL) were. […] Cells were stimulated for either drugs, cytokines or hormones for 72 h, before harvesting by centrifugation at 300× g for 10 min at 4 °C. […] All cell line stimulation experiments were conducted as a minimum of three biological repeats.

[2] = test system: drug transporter mRNA expression in VK2/E6E7 cells; assay: Drug transporter mRNA expression (RT-qPCR) in stimulated VK2/E6E7 cells; type: cell-based, human; details: 72 h cytokine stimulation
Experimental: as §1, §2, §3, §4

HEC-1A monolayer = assay: Darunavir transfer across low-pH-adapted HEC-1A monolayers at apical pH 7.5 or 5.5 (LC-MS/MS); type: in vitro ADME, human; details: for % of darunavir transferred to the receiver compartment, absorptive direction: 2 h, n = 10
HEC-1A cells [3] = assay: Cytokine production of HEC-1A cells stimulated with PAMPs (Luminex); type: cell-based, human
Experimental: HEC-1A cells were stimulated with different PAMPs (pam 3CSK4, lipoteichoic acid, poly(I:C), Escherichia coli lipopolysaccharide, FSL-1, flagellin, imiquimod, zymosan) (InvivoGen, San Diego, CA, USA) diluted in cell culture media with incubation at 37 °C in 5% CO2 for 24 h. PAMPs were titrated to determine the optimal concentration for cytokine stimulation. Blank samples contained media only. After 24 h, the supernatant was collected for cytokine detection. Cytokine levels were determined using a Magnetic Luminex® Performance Assay kit (R&D Systems, Minneapolis, MN, USA) following the manufacturer’s instructions. Analyte-specific antibodies were pre-coated onto colour-coded microparticles and detection was carried out with a biotinylated antibody cocktail specific to the target cytokines and a streptavidin-phycoerythrin conjugate. Samples were resuspended in 100 µL of Washing Buffer and measured for a phycoerythrin-derived signal using a Luminex® 100 instrument.

HEC-1A cell layers [4] = test system: HEC-1A cell layers
in vitro = details: human, pH 7.4
HEC-1A cells [5] = assay: Cell-associated drug and distribution between apical and basolateral compartments after absorptive permeability assay; type: in vitro ADME, human; details: for Cell-associated drug (HEC-1A cells): after absorptive permeability assays;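 on all read-outs here: transwell transport run over 2 h at 37 °C, radiolabelled drug quantified by liquid scintillation counting, with insert membranes also counted for mass balance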
[6] = Bi-directional permeability (Papp) across HEC-1A dual chamber (Transwell) barrier model; type: in vitro ADME; details: human; for Papp A→B at 2 h: read-out: Absorptive permeability Papp; for Papp B→A at 2 h: read-out: Secretory permeability Papp
Experimental: The apical chambers of 12-well polycarbonate and polyester systems (Corning Costar Corp, Cambridge, UK) were seeded with different densities of HEC-1A cells in 500 µL of the medium while 1500 µL culture medium was added to the basolateral chamber. -Medium in both chambers was changed every 48–72 h.

HEC-1A cell layers [7] = assay: Permeability across HEC-1A cell layers stimulated with poly(I:C); details: p > 0.05, ANOVA
HEC-1A barrier model = assay: Permeability of labelled drug across HEC-1A model on coadministration with a second ARV; type: in vitro ADME, human; details: labelled drug 10 µM; for Absorptive permeability on coadministration with dapivirine: dapivirine 0–10 µM
[8] = ref DrugBank; cited from earlier work

Molecule | Change in expression of drug transporters (panel of 17) [1] | Effect on intracellular uptake of digoxin (VK2/E6E7 cells) | Expression of uptake transporters OATP8 and CNT3 [2] | P-gp mRNA level [2] | Papp (HEC-1A cell layers [4]) [×10⁻⁶ cm/s] | Papp at 2 h, 10 µM (in vitro) [×10⁻⁶ cm/s] | % Drug Distribution Apical (HEC-1A cells [5]; 1 μM) [%] | % Drug Distribution Basolateral (HEC-1A cells [5]; 1 μM) [%] | % Drug Distribution Apical (HEC-1A cells [5]; 10 μM) [%] | % Drug Distribution Basolateral (HEC-1A cells [5]; 10 μM) [%] | % Drug Distribution Cell-Associated (HEC-1A cells [5]; 10 μM) [%] | Cell-associated drug (HEC-1A cells) (HEC-1A cells [5]) [%] | Difference in Papp (A-B or B-A), poly(I:C)-stimulated vs unstimulated cell layers (HEC-1A cell layers [7]) | Absorptive permeability on coadministration with dapivirine (HEC-1A barrier model) | other results
IL-6: pro-inflammatory cytokine | No changes | not | induce the expression | increased |  |  |  |  |  |  |  |  |  |  | 
CN(C)C(=O)CCSC(SCCC(=O)O)c1cccc(/C=C/c2ccc3ccc(Cl)cc3n2)c1 (stereo not shown) [MK571] |  |  |  |  |  |  |  |  |  |  |  |  |  |  | Effect on absorptive transfer of darunavir (HEC-1A monolayer; MK571 (50 µM) in donor compartment, apical pH 5.5): reduced the absorptive transfer of darunavir to the level observed at pH 7.5
TNF-α | No changes | significantly reduced | induce the expression | increased |  |  |  |  |  |  |  |  |  |  | 
poly(I:C) |  |  |  |  |  |  |  |  |  |  |  |  |  |  | Pro-inflammatory cytokine production (HEC-1A cells [3]; 24 h stimulation): induced production of IL-6, IL-8, IL-1α, GM-CSF and TNF-α; Optimum concentration for cytokine stimulation (HEC-1A cells [3]; titration 1–50 µg/ml): 25 µg/mL
C[C@H](Cn1cnc2c(N)ncnc21)OCP(=O)(O)O [tenofovir, Tenofovir] |  |  |  |  | 1.45 ± 0.21 | 1.06 ± 0.05 | 96.85 ± 0.29 | 2.73 ± 0.24 | 96.91 ± 0.27 | 2.79 ± 0.25 | 0.3 ± 0.06 | ≤ 0.5 | no significant differences | not altered | % Drug Distribution Apical (HEC-1A cells [5]; 0.1 μM): 97.03 ± 0.28%; % Drug Distribution Basolateral (HEC-1A cells [5]; 0.1 μM): 2.63 ± 0.25%; % Drug Distribution Cell-Associated (HEC-1A cells [5]; 0.1 μM): 0.34 ± 0.06%; % Drug Distribution Cell-Associated (HEC-1A cells [5]; 1 μM): 0.42 ± 0.08%; % Drug Distribution Apical (HEC-1A cells [5]; 100 μM): 96.59 ± 0.41%; % Drug Distribution Basolateral (HEC-1A cells [5]; 100 μM): 2.99 ± 0.36%; % Drug Distribution Cell-Associated (HEC-1A cells [5]; 100 μM): 0.42 ± 0.17%; Recovery from the apical compartment after absorptive permeability assays (HEC-1A cells [5]; % of initial concentration, no Poloxamer): 96–97%; Papp A→B at 2 h ([6]; pH 7.4, apical to basolateral, over concentration range (tenofovir 0.1–100 µM; darunavir 0.1–20 µM, 0.01% DMSO)): 1.76 to 2.06 ×10⁻⁶ cm/s; Papp B→A at 2 h ([6]; pH 7.4, basolateral to apical, over concentration range (tenofovir 0.1–100 µM; darunavir 0.1–20 µM, 0.01% DMSO)): 1.46 to 1.64 ×10⁻⁶ cm/s; efflux ratio at 2 h ([6]; pH 7.4, over concentration range tested, read-out: Efflux ratio (secretory/absorptive)): 0.77 to 0.83; Absorptive or secretory permeability on coadministration with darunavir (HEC-1A barrier model; darunavir 0–10 µM): did not significantly alter
CC(C)CN(C[C@@H](O)[C@H](Cc1ccccc1)NC(=O)O[C@H]1CO[C@H]2OCC[C@H]21)S(=O)(=O)c1ccc(N)cc1 [darunavir, Darunavir] |  |  |  |  | 8.45 ± 0.68 | 8.24 ± 0.6 | 82.90 ± 1.76 | 15.13 ± 1.44 | 83.36 ± 2.12 | 13.95 ± 1.75 | 2.70 ± 1.31 | ≤ 3 | no significant differences | not altered | % Drug Distribution Apical (HEC-1A cells [5]; 5 μM): 83.15 ± 2.61%; % Drug Distribution Basolateral (HEC-1A cells [5]; 5 μM): 14.55 ± 1.88%; % Drug Distribution Cell-Associated (HEC-1A cells [5]; 5 μM): 2.55 ± 1.22%; % Drug Distribution Apical (HEC-1A cells [5]; 20 μM): 81.72 ± 1.61%; % Drug Distribution Basolateral (HEC-1A cells [5]; 20 μM): 15.31 ± 1.22%; % Drug Distribution Cell-Associated (HEC-1A cells [5]; 20 μM): 2.97 ± 1.27%; % of darunavir transferred to the receiver compartment, absorptive direction (HEC-1A monolayer; apical pH 5.5, basal pH 7.5, p < 0.001): 30.1 ± 6.0%; % of darunavir transferred to the receiver compartment, absorptive direction (HEC-1A monolayer; apical pH 7.5): 20 ±2.8%; logP [8]: 2.82; Papp A→B at 2 h ([6]; pH 7.4): 9.66 to 11.2 ×10⁻⁶ cm/s; Papp B→A at 2 h ([6]; pH 7.4): 8.59 to 9.42 ×10⁻⁶ cm/s; Permeabilities on coadministration with tenofovir (HEC-1A barrier model; tenofovir 0–100 µM): no effect
